Reference: PubChem BioAssay AID1850 (Southern Research Specialized Biocontainment Screening …, 2009)
Values joined by “and” are separate entries in the source; they are usually repeats but may differ in a detail not shown here. Identical values can stand only once.

Test system: Salmonella Typhi PhoP-promoter GFP reporter, fluorescence, 4 h
Assay: Inhibition of PhoP regulon, Salmonella typhi GFP reporter cells, confirmation, 4 h (AID 1850)

| SMILES | IC50 |
| --- | --- |
| Cc1cc(C)c(NC(=O)C[N+](C)(C)CC(O)COc2cccc3ccccc23)c(C)c1 (stereo not drawn) | 46.3 µM |
| CCN1/C(=C/c2cc[n+](C)cc2)C=Cc2cc(C)ccc21 | 36.9 µM |
| Cc1cc(C)c2sc(N(CCCN(C)C)C(=O)COc3ccc(Cl)cc3)nc2c1 | 30.8 µM |
| CC(Nc1nc(N2CCCC2)nc2ccccc12)c1ccccc1 (stereo not drawn) | 69.2 µM |
| O=C(Nc1cccc([N+](=O)[O-])c1)Nc1cccs1 | 24.7 µM |
| Oc1c(CN2CCCCC2)cc(Br)c2cccnc12 | 17.8 µM |
| CN(C)CCNC(=O)/C(=C/c1ccc(-c2ccc(Cl)cc2)o1)NC(=O)c1ccccc1 | 78 µM |
| O=C(Nc1nnc(C2COc3ccccc3O2)o1)c1ccc(F)cc1 (stereo not drawn) | 36.5 µM |
| COc1cccc(-c2nnc(NC(=O)c3ccc(Cl)s3)o2)c1 | 101 µM |
| O=C(CCN1CCN(C(=O)c2ccccc2)CC1)c1ccc(Br)cc1 | 117 µM |
| Oc1ccccc1C(Nc1nccs1)c1ccc2cccnc2c1O (stereo not drawn) | 20.7 µM |
| C=CC1=C(C(=O)O)N2C(=O)[C@@H](NC(=O)/C(=N/OCC(=O)O)c3csc(N)n3)[C@H]2SC1 | 17.3 µM |
| CN(C)c1ccc2nc3ccc(=[N+](C)C)cc-3sc2c1 | 18.2 µM |
| Fc1ccccc1CSc1ccc(-c2ccco2)nn1 | 133 µM |
| Cc1cc(C)c(OCCCCNCc2ccccc2)c(Cl)c1 | 74.6 µM |
| Cc1ccc(C(C[N+](=O)[O-])n2nc(C)cc2C)cc1 (stereo not drawn) | 75.1 µM |
| CCc1ccc2c(c1)Sc1ccccc1CC2N1CCN(C)CC1 (stereo not drawn) | 40.7 µM |
| CCN1CCN(C(=O)c2cc3cc(Cl)ccc3[nH]2)CC1 | 89.5 µM |
| Cc1ccc(NNS(=O)(=O)c2ccc(C)cc2)cc1 | 53.7 µM |
| Clc1ccc(OCCCN2CCCC2)cc1Cl | 93.3 µM |
| O=C(C[n+]1cccc(CNC(=O)c2ccc(OC(F)F)cc2)c1)Nc1ccc(SC(F)F)cc1 | 83.2 µM |
| C#CCOCCOCCOCCNc1nc(N2CCN(C(=O)CCCCCCCCCCNC(=O)Cn3cc(CCCCCN)nn3)CC2)nc(N2CCN(C(=O)CCCCCCCCCCNC(=O)[C@@H]([C@H](C)O)n3cc(C)nn3)CC2)n1 | 114 µM |
| N/C(=N\N=C/c1ccc(F)cc1)N/N=C\c1ccc(F)cc1 | 37.8 µM |
| C#CCOCCOCCOCCNc1nc(N2CCN(C(=O)CCCCCCCCCCNC(=O)Cn3cc(CCCCCN)nn3)CC2)nc(N2CCN(C(=O)CCCCCCCCCCNC(=O)[C@H]([C@@H](C)CC)n3cc(CCCCN=C(N)N)nn3)CC2)n1 | 28.3 µM |
| Cc1cc(C)n(-c2nc(NCCN(C)C)c3c4c(sc3n2)CCCC4)n1 | 45.3 µM |
| CCCCCC(=O)NNC(=S)NC(C)=O | 32.9 µM |
| NC1=C(Br)C(=O)c2ccccc2C1=O | 25.4 µM |

| SMILES | IC50 |
| --- | --- |
| Nc1nc(Nc2ccc(Cl)cc2)nc2ccccc12 | 15.3 µM |
| O=C1c2ccccc2C2=Nc3ccccc3SC(c3ccccc3F)C12 (stereo not drawn) | 3.8 µM |
| O=C(CSc1nc2ccccc2[nH]1)Nc1ccc(F)c(F)c1 | 62.5 µM |
| O=C(CCN1CCN(c2ccccc2)CC1)c1ccc(Br)cc1 | 104 µM |
| CCCCCCCCCCOC(=O)Cn1c(COc2ccc(OC)cc2)[n+](C)c2ccccc21 | 22.7 µM and 14.4 µM |
| Cc1cc(C)c2nc(C)cc(N/N=C/c3ccc(O)cc3)c2c1 | 36.4 µM |
| Cc1cccc(Nc2c3c(nc4ccccc24)CCC3)c1 | 34.7 µM |
| O=C(CSc1ccccn1)N/N=C/c1cc([N+](=O)[O-])ccc1O | 76.1 µM |
| COc1ccccc1N1CCN(Cc2ccc(O)c3ncccc23)CC1 | 38.2 µM |
| CCCOc1ccc(C(=O)NNC(=S)NC(=O)CC)cc1 | 47.7 µM |
| c1ccc2c(NCCc3c[nH]c4ccccc34)c3ccccc3nc2c1 | 36.3 µM |
| O=c1c2c([nH]c3ccccc13)CCCCC2 | 43.6 µM |
| Cc1nc(N)nc(N)c1CCCc1ccc(Cl)c(Cl)c1 | 35.9 µM |
| O=[N+]([O-])c1ccc(/C=[N+](\[O-])CCO)o1 | 60.3 µM |
| C#CCOCCOCCOCCNc1nc(N2CCN(C(=O)[C@H](Cc3cc4ccccc4[nH]3)n3cc([C@@H](N)C(C)CC)nn3)CC2)nc(N2CCN(C(=O)[C@H](Cc3cc4ccccc4[nH]3)n3cc([C@@H](N)CC(C)C)nn3)CC2)n1 (stereo partly drawn) | 70 µM |
| Nc1nnc(-c2cccc(Cl)c2Cl)c(N)n1 | 65.3 µM |
| Nc1ncn(C2O[C@H](CO)[C@@H](O)[C@H]2O)c(=O)n1 (stereo partly drawn) | 34 µM |
| COc1cc([N+](=O)[O-])cc(/C=N/NC(=O)CSc2ccccn2)c1O | 127 µM |
| CN(C)CCCN1c2ccccc2CCc2ccc(Cl)cc21 | 102 µM |
| COc1c(N2CCN(C(=S)Nc3ccc(F)cc3)C(C)C2)c(F)cc2c(=O)c(C(=O)O)cn(C3CC3)c12 (stereo not drawn) | 1.72 µM |
| Cc1ccc(C(=O)N/C(=C\c2ccc(-c3ccc(Br)cc3)o2)C(=O)NCCCN(C)C)cc1 | 37.1 µM |
| CNC(CC(=O)c1ccc([N+](=O)[O-])cc1)C(Cl)(Cl)Cl (stereo not drawn) | 95 µM |
| O=C1NCCN1c1ncc([N+](=O)[O-])s1 | 40.8 µM |
| O=C(Nc1nnc(-c2cccs2)o1)c1cccc(C(F)(F)F)c1 | 22.9 µM |
| CCC(O)(CC)C(=O)N/N=C/c1cc(Br)cc(Br)c1O | 77.9 µM |
| Oc1ccc(CN2CCCc3ccccc32)c2cccnc12 | 83 µM |
